# From patent US8558011B2, “Cold menthol receptor-1 antagonists” (Janssen Pharmaceutica, NV, priority 2010, dated 2013)
# Values joined by “and” are separate entries in the source; they are usually repeats but may differ in a detail not shown here. Equal values may be shown once.
# Target: T1, canine TRPM8 (Canis lupus familiaris, UniProt Q1A7N1)
# T1 construct: expressed in transfected cells
# Assay: In Vitro Canine TRPM8 Functional Assay (Ca2+-sensitive fluorescent dye, icilin activation, FLIPR/FDSS)
# Format: cell-based
# Conditions: HEK293 cells stably expressing canine TRPM8, icilin activation; for IC50: eight-point dose-response; for % I (0.5 μM): compound at 0.5 μM; for % I (1 μM): compound at 1 μM
# Protocol: The functional activity of compounds of Formula (I) was determined by measuring changes in intracellular calcium concentration using a Ca^2+-sensitive fluorescent dye. The changes in fluorescent signal were monitored by a fluorescence plate reader, either a FLIPR™ (Molecular Devices) or FDSS (Hamamatsu).
# HEK293 cells stably expressing canine TRPM8 were routinely grown as monolayers in Dulbecco's minimum essential medium supplemented with 10% FBS, 1 mM L-glutamine, 100 units/mL penicillin, 100 ug/mL streptomycin and 400 μg/mL G418. Cells were maintained in 5% CO2 at 37° C. At 24 hrs prior to assay, cells were seeded in clear-base poly-D-lysine coated 384-well plates (BD Biosciences, NJ, USA) at a density of 5,000 cells per well in culture medium and grown overnight in 5% CO2 at 37° C. On assay day, growth media was removed and cells were loaded with Calcium 3 Dye (Molecular Devices) for 35 min at 37° C., under 5% CO2 and then for 25 min at room temperature and atmosphere. Subsequently, cells were tested for agonist-induced increases in intracellular Ca^2+ levels using FLIPR™ or FDSS. Cells were challenged with a compound of Formula (I) (at varying concentrations) and intracellular Ca^2+ was measured for 5 min prior to the addition of icilin to all wells to achieve a final concentration which produces approximately an 80% maximal response.
# Basal FI was subtracted prior to normalizing data to percent of maximal response. Curves were generated using the average of quadruplicate wells for each data point, were analyzed using nonlinear regression of either sigmoidal dose response or sigmoidal dose response (variable slope). Finally, the EC50 and IC50 values were calculated with the best-fit dose curve determined by GraphPad Prism.
# T1 sequence (Q1A7N1 1-1104): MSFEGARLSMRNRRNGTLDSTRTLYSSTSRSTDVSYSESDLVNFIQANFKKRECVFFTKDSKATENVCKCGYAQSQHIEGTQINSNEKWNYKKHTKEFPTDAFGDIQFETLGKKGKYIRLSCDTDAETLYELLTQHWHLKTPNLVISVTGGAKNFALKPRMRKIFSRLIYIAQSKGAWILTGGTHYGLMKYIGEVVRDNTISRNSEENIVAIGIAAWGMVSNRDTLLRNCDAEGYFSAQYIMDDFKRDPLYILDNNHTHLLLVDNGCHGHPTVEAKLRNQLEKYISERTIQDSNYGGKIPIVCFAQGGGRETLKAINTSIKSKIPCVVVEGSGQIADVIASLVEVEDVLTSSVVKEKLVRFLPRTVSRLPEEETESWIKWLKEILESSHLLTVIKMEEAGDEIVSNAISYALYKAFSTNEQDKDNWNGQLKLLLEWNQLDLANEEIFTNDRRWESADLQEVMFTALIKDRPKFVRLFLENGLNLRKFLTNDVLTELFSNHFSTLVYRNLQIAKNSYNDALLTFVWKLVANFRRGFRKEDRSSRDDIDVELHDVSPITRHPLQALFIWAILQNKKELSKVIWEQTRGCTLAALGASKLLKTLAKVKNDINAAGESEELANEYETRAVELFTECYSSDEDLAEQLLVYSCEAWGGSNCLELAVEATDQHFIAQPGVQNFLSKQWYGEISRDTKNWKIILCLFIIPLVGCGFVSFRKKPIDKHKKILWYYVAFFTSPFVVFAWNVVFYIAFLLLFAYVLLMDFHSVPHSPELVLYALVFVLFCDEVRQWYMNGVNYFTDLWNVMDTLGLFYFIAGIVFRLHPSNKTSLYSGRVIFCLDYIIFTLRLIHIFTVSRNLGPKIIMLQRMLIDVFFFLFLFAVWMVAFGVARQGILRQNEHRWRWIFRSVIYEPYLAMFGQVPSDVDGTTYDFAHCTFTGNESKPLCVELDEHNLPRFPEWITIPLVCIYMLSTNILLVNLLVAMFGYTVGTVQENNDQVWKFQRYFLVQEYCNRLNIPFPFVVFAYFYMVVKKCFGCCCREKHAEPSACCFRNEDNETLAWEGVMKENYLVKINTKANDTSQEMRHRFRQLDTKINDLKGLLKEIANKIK
Structure (SMILES),IC50,% I (0.5 μM),% I (1 μM) [%]
CCOP(=O)(OCC)C(Cc1ccc(OC(F)(F)F)c(Cl)c1)c1sc2ccccc2c1Br (centres unmarked) [Cpd 149],60 nM,103%,
CCOP(=O)(OCC)C(Cc1ccc(C(F)(F)F)cc1F)c1sc2ccccc2c1Br (centres unmarked) [Cpd 150],90 nM,103%,
CCOP(=O)(OCC)C(Cc1cccc(C(F)(F)F)c1Cl)c1sc2ccccc2c1Br (centres unmarked) [Cpd 151],120 nM,103%,
CCOP(=O)(OCC)C(Cc1ccc(OC)c(C(F)(F)F)c1)c1sc2ccccc2c1Br (centres unmarked) [Cpd 152],54 nM and 50 nM,102% and 92%,
CCOP(=O)(OCC)C(Cc1ccc(SC(F)(F)F)cc1)c1sc2ccccc2c1Br (centres unmarked) [Cpd 153],43 nM,103%,
CCOP(=O)(OCC)C(Cc1ccc(C(F)(F)F)cc1)c1sc2ccccc2c1Br (centres unmarked) [Cpd 154],27 nM,103%,
CCOP(=O)(OCC)C(Cc1ccc(F)c(OC)c1)c1sc2ccccc2c1Br (centres unmarked) [Cpd 156],,103%,
COc1cc(CC(c2sc3ccccc3c2Br)P(=O)(OC(C)C)OC(C)C)ccc1F (centres unmarked) [Cpd 157],,103%,
CCOP(=O)(OCC)C(Cc1ccc(OC)c(F)c1)c1sc2ccccc2c1Br (centres unmarked) [Cpd 158],59 nM,101%,
COc1ccc(CC(c2sc3ccccc3c2Br)P(=O)(OC(C)C)OC(C)C)cc1F (centres unmarked) [Cpd 159],36 nM,103%,
CCOP(=O)(OCC)C(Cc1c(F)c(F)c(OC)c(F)c1F)c1sc2ccccc2c1Br (centres unmarked) [Cpd 160],60 nM,87%,
COc1c(F)c(F)c(CC(c2sc3ccccc3c2Br)P(=O)(OC(C)C)OC(C)C)c(F)c1F (centres unmarked) [Cpd 161],19 nM,103%,
CCOP(=O)(OCC)C(Cc1cccc(OC)c1F)c1sc2ccccc2c1Br (centres unmarked) [Cpd 162],32 nM,103%,
COc1ccc(CC(c2sc3ccccc3c2Br)P(=O)(OC(C)C)OC(C)C)c(F)c1 (centres unmarked) [Cpd 163],20 nM,103%,
CCOP(=O)(OCC)C(Cc1cc(OC)c(Cl)cc1F)c1sc2ccccc2c1Br (centres unmarked) [Cpd 164],82 nM,94%,
COc1cc(CC(c2sc3ccccc3c2Br)P(=O)(OC(C)C)OC(C)C)c(F)cc1Cl (centres unmarked) [Cpd 165],86 nM,102%,
CC(C)OP(=O)(OC(C)C)C(Cc1cccc(Cl)c1)c1sc2ccccc2c1Br (centres unmarked) [Cpd 166],18 nM and 14 nM,102%,103
CC(C)OP(=O)(OC(C)C)C(Cc1ccc(Cl)c(C(F)(F)F)c1)c1sc2ccccc2c1Cl (centres unmarked) [Cpd 167],97 nM,104%,
CC(C)OP(=O)(OC(C)C)C(Cc1cccc(C(F)(F)F)c1F)c1sc2ccccc2c1Cl (centres unmarked) [Cpd 168],76 nM,104%,
CC(C)OP(=O)(OC(C)C)C(Cc1cc(F)cc(C(F)(F)F)c1)c1sc2ccccc2c1Cl (centres unmarked) [Cpd 169],96 nM,104%,
CC(C)OP(=O)(OC(C)C)C(Cc1cccc(C(F)(F)F)c1)c1sc2ccccc2c1Cl (centres unmarked) [Cpd 170],73 nM,103%,
CC(C)OP(=O)(OC(C)C)C(Cc1cc(C(F)(F)F)cc(C(F)(F)F)c1)c1sc2ccccc2c1Cl (centres unmarked) [Cpd 171],221 nM,95%,
CC(C)OP(=O)(OC(C)C)C(Cc1cc(C(F)(F)F)ccc1F)c1sc2ccccc2c1Cl (centres unmarked) [Cpd 172],105 nM,104%,
CC(C)OP(=O)(OC(C)C)C(Cc1ccccc1C(F)(F)F)c1sc2ccccc2c1Cl (centres unmarked) [Cpd 173],140 nM,103%,
CCC(C)P(=O)(C(C)CC)C(OCc1ccc(F)c(F)c1)c1sc2ccccc2c1Br (centres unmarked) [Cpd 204],92 nM,,100

Structure (SMILES),IC50,% I (0.5 μM),% I (1 μM) [%]
CC(C)OP(=O)(OC(C)C)C(Cc1ccc(F)c(F)c1)c1oc2cccc(F)c2c1Br (centres unmarked) [Cpd 205],50 nM,,101
CCOP(=O)(OCC)C(Cc1ccc(F)c(F)c1)c1oc2cccc(F)c2c1Br (centres unmarked) [Cpd 206],98 nM,,100
CC(C)OP(=O)(OC(C)C)C(Cc1ccc(F)c(F)c1)c1sc2ncccc2c1Br (centres unmarked) [Cpd 207],51 nM,99%,
CCOP(=O)(OCC)C(Cc1ccc(F)c(F)c1)c1sc2ccccc2c1-c1ccsc1 (centres unmarked) [Cpd 208],104 nM,104%,
CC(C)CCOP(=O)(OCCC(C)C)C(Cc1ccc(F)c(F)c1)c1sc2ccccc2c1Br (centres unmarked) [Cpd 211],95 nM,97%,
CC(=O)OCCOP(=O)(OCCOC(C)=O)C(Cc1ccc(F)c(F)c1)c1sc2ccccc2c1Br (centres unmarked) [Cpd 213],202 nM,100%,
CCOP(=O)(OCC)C(Cc1ccc(F)c(F)c1)c1sc2ccccc2c1-c1ccccc1O (centres unmarked) [Cpd 215],85 nM,101%,
CCOP(=O)(OCC)C(Cc1ccc(F)c(F)c1)c1sc2ccccc2c1-c1ccccc1F (centres unmarked) [Cpd 216],126 nM,100%,
CCOP(=O)(OCC)C(Cc1ccc(F)c(F)c1)c1sc2ccccc2c1-c1cccc(C(N)=O)c1 (centres unmarked) [Cpd 218],483 nM,79%,
CCOP(=O)(OCC)C(Cc1ccc(F)c(F)c1)c1sc2ccccc2c1-c1ccc(F)cc1 (centres unmarked) [Cpd 220],207 nM,101%,
CC(C)OP(=O)(OC(C)C)C(Cc1ccc(F)c(C(F)(F)F)c1)c1sc2cccc(F)c2c1Br (centres unmarked) [Cpd 222],33 nM,103%,
CCOP(=O)(OCC)C(Cc1ccc(F)c(C(F)(F)F)c1)c1sc2cccc(F)c2c1Br (centres unmarked) [Cpd 223],52 nM,102%,
CCOP(=O)(OCC)C(Cc1ccc(F)c(F)c1)c1sc2cccc(F)c2c1Br (centres unmarked) [Cpd 224],44 nM,102%,
"CCOP(=O)(OCC)C(Cc1ccc(F)c(O)c1)c1sc2ccccc2c1Br (centres unmarked) [Cpd 225, [1-(3-Bromo-benzo[b]thiophen-2-yl)-2-(4-fluoro-3-hydroxy-phenyl)-ethyl]-phosphonic acid diethyl ester]",,103%,
CCOP(=O)(OCC)C(Cc1c(F)c(F)c(O)c(F)c1F)c1sc2ccccc2c1Br (centres unmarked) [Cpd 228],129 nM,94%,
CC(C)OP(=O)(OC(C)C)C(Cc1c(F)c(F)c(O)c(F)c1F)c1sc2ccccc2c1Br (centres unmarked) [Cpd 229],156 nM,95%,
CC(C)OP(=O)(OC(C)C)C(Cc1cccc(O)c1F)c1sc2ccccc2c1Br (centres unmarked) [Cpd 230],10 nM,97%,
CCOP(=O)(OCC)C(Cc1cc(O)c(Cl)cc1F)c1sc2ccccc2c1Br (centres unmarked) [Cpd 231],122 nM,98%,
CC(C)OP(=O)(OC(C)C)C(Cc1cc(O)c(Cl)cc1F)c1sc2ccccc2c1Br (centres unmarked) [Cpd 232],63 nM,99%,
"CC(C)OP(=O)(OC(C)C)[C@H](Cc1ccc(F)c(F)c1)c1sc2ccccc2c1Br [Cpd 235, (R)-[1-(3-Bromo-benzo[b]thiophen-2-yl)-2-(3,4-difluoro-phenyl)-ethyl]-phosphonic acid diisopropyl ester]",,56%,
CCOP(=O)(OCC)C(Cc1ccc(F)cc1C(F)(F)F)c1sc2ccccc2c1Br (centres unmarked) [Cpd 245],124 nM,103%,
CCOP(=O)(OCC)C(Cc1ccc(SC)cc1)c1sc2ccccc2c1Br (centres unmarked) [Cpd 247],121 nM,103%,
CC(C)OP(=O)(OC(C)C)C(Cc1ccc(F)c(Cl)c1)c1sc2ccccc2c1Br (centres unmarked) [Cpd 248],21 nM,104%,
CCOP(=O)(OCC)C(Cc1ccccc1C(F)(F)F)c1sc2ccccc2c1Cl (centres unmarked) [Cpd 279],291 nM,97%,
